According to patent US7442841B2, “Extraction process” (Invista North America S.A R.L., priority 2006, dated 2008):

Columns and labels:
[1] = Liquid-liquid separation of cyclohexanol from cyclohexane, distribution coefficient by gas chromatography; format: physicochemical; details: for Cyclohexanol D (distribution coefficient): concentration in extracting solvent phase divided by concentration in cyclohexane phase, 1 mL stock solution + 1 mL extracting solvent; for Cyclohexanol Log D: extracting solvent/cyclohexane, equal volumes
Method: The distribution coefficient for the separation was then calculated.

[2] = Liquid-liquid separation of cyclohexanone from cyclohexane, distribution coefficient by gas chromatography; details: for Cyclohexanone D (distribution coefficient): concentration in extracting solvent phase divided by concentration in cyclohexane phase, 1 mL stock solution + 1 mL extracting solvent; for Cyclohexanone Log D: extracting solvent/cyclohexane, equal volumes
Method: As used herein, the term “distribution coefficient” referring to the liquid-liquid separation refers to the concentration of the separable component in the ionic liquid-based phase divided by the concentration of the separable component in the non-polar solvent-based phase. These concentrations are measured subsequent to settling, i.e. when the separation mixture has reached equilibrium subsequent to the vigorous shaking.
The general method used for all the examples was as follows.
Stock solution; 250 mg cyclohexanol (Molecular Weight=100 gmol^−1) and 250 mg cyclohexanone (Molecular Weight=98 gmol^−1) in 10 g of cyclohexane (Molecular Weight=84 gmol^−1).
Method: add 1 mL (0.8 g) of stock solution (20 mg each of cyclohexanol and cyclohexanone) to 1 mL of ionic liquid and shake vigorously. After settling time and complete phase separation, 3 drops of the top layer were added to a vial and filled with ethylene chloride. Gas chromatography analysis was used to provide the number of moles of the separable component in each liquid phase. The distribution coefficient for the separation was then calculated.

[3] = Extraction of 2-octanone from octane, IL/Octane distribution coefficient; format: physicochemical; details: concentration of substrate in IL divided by concentration in octane
Method: (§1) A corresponding set of experiments was conducted to study the extraction of octanol and 2-octanone from octane using ionic liquids. The results are presented in Table 2 below, in which the IL/Octane distribution coefficient is calculated as the concentration of substrate in IL divided by the concentration of substrate in octane.

[4] = Extraction of octanol from octane, IL/Octane distribution coefficient; format: physicochemical; details: concentration of substrate in IL divided by concentration in octane
Method: as §1

| SMILES | Cyclohexanol D (distribution coefficient) [1] | Cyclohexanol Log D [1] | Cyclohexanone D (distribution coefficient) [2] | Cyclohexanone Log D [2] | IL/Octane distribution coefficient 2-Octanone [3] | IL/Octane distribution coefficient Octanol [4] |
| --- | --- | --- | --- | --- | --- | --- |
| O [Example 1, H2O, reference compound] | 0.86 | −0.07 | 0.34 | −0.47 |  |  |
| CCCC[N+]1(C)CCCC1 [Example 7] | 5.12 | 0.71 | 5.00 |  |  |  |
| C[S+](C)[O-] [Example 14, dimethyl sulfoxide, reference compound] | 24.79 | 1.39 | 2.80 | 0.45 |  |  |
| CCCCn1cc[n+](C)c1 [Example 6] | 4.10 |  | 4.38 |  |  |  |
| C[S+](C)[O-] [Example 19, dimethyl sulfoxide, reference compound] |  |  |  |  | 0.89 | 7.67 |
| CCCCn1cc[n+](C)c1 [Example 15] |  |  |  |  | 2.08 | 1.06 |
| CCCC[n+]1ccn(C)c1 [Example 3] | 1.77 |  | 2.11 |  |  |  |
| C[N+]1(CCCCS(=O)(=O)O)CCCC1 [Example 8] | 5.96 | 0.78 | 0.21 |  |  |  |
| CCCCn1cc[n+](C)c1 [Example 4] | 2.32 |  | 1.51 |  |  |  |
| Br.CCCC[n+]1ccn(C)c1 [Example 17] |  |  |  |  | 0.16 | 1.44 |
| CC[n+]1ccccc1 [Example 2] | 1.60 | 0.20 | 3.40 |  |  |  |
| C[N+](C)(C)CCO [Example 5] | 2.91 | 0.46 | 3.00 | 0.478 |  |  |
